In patent US8178522B2, “Thiazoles” (Hoffmann-La Roche Inc., priority 2009, dated 2012):
Where two headings read alike, the source gives them in different places.

Target: T1, GABA A α5 (α5β3γ2) (Homo sapiens, UniProt P18507+P31644)
T1 construct: expressed in transfected cells; host or cells: HEK293, transiently transfected; membrane preparation
Experiment: [3H]flumazenil competition binding, human GABA A α5 receptor
Experimental: Membrane Preparation and Binding Assay
The affinity of compounds at GABA A receptor subtypes was measured by competition for [3H]flumazenil (85 Ci/mmol; Roche) binding to HEK293 cells expressing rat (stably transfected) or human (transiently transfected) receptors of compositional α1β3γ2, α2β3γ2, α3β3γ2 and α5β3γ2.
Cell pellets were suspended in Krebs-tris buffer (4.8 mM KCl, 1.2 mM CaCl2, 1.2 mM MgCl2, 120 mM NaCl, 15 mM Tris; pH 7.5; binding assay buffer), homogenized by polytron for ca. 20 sec on ice and centrifuged for 60 min at 4° C. (50000 g; Sorvall, rotor: SM24=20000 rpm). The cell pellets were re-suspended in Krebs-tris buffer and homogenized by polytron for ca. 15 sec on ice. Protein was measured (Bradford method, Bio-Rad) and aliquots of 1 mL were prepared and stored at −80° C.
Assays were incubated to equilibrium for 1 hour at 4° C. and harvested onto GF/C uni-filters (Packard) by filtration using a Packard harvester and washing with ice-cold wash buffer (50 mM Tris; pH 7.5). After drying, filter-retained radioactivity was detected by liquid scintillation counting. Ki values were calculated using Excel-Fit (Microsoft) and are the means of two determinations.

[1] = human receptor α5β3γ2 transiently transfected in HEK293 cells, competition for [3H]flumazenil 0.5 nM, 1 hour at 4° C., means of two determinations, read-out: hKi GABA A α5

Ki [1] [nM] | Ki [nM] | Compound
17.8 | – | Cc1onc(-c2ccccn2)c1CCc1ncc(C(=O)NCC(F)(F)F)s1 [Example 28, 2-[2-(5-Methyl-3-pyridin-2-yl-isoxazol-4-yl)-ethyl]-thiazole-5-carboxylic acid (2,2,2-trifluoro-ethyl)-amide]
32.4 | – | Cc1onc(-c2ccccn2)c1CCc1ncc(C(=O)NCCO)s1 [Example 29, 2-[2-(5-Methyl-3-pyridin-2-yl-isoxazol-4-yl)-ethyl]-thiazole-5-carboxylic acid (2-hydroxy-ethyl)-amide]
23.6 | – | COC(=O)c1sc(CCc2c(-c3ccc(F)cn3)noc2C)nc1C [Example 30, 2-{2-[3-(5-Fluoro-pyridin-2-yl)-5-methyl-isoxazol-4-yl]-ethyl}-4-methyl-thiazole-5-carboxylic acid methyl ester]
5.2 | – | Cc1nc(CCc2c(-c3ccc(F)cn3)noc2C)sc1C(=O)NC1CCOCC1 [Example 31, 2-{2-[3-(5-Fluoro-pyridin-2-yl)-5-methyl-isoxazol-4-yl]ethyl}-4-methyl-thiazole-5-carboxylic acid (tetrahydro-pyran-4-yl)-amide]
7 | – | Cc1nc(CCc2c(-c3ccc(F)cn3)noc2C)sc1C(=O)NC(C)C [Example 32, 2-{2-[3-(5-Fluoro-pyridin-2-yl)-5-methyl-isoxazol-4-yl]-ethyl}-4-methyl-thiazole-5-carboxylic acid isopropylamide]
9 | – | Cc1nc(CCc2c(-c3ccc(F)cn3)noc2C)sc1C(=O)NC1CC1 [Example 33, 2-{2-[3-(5-Fluoro-pyridin-2-yl)-5-methyl-isoxazol-4-yl]-ethyl}-4-methyl-thiazole-5-carboxylic acid cyclopropylamide]
16 | – | Cc1nc(CCc2c(-c3ccc(F)cn3)noc2C)sc1C(=O)NCC1CC1 [Example 34, 2-{2-[3-(5-Fluoro-pyridin-2-yl)-5-methyl-isoxazol-4-yl]-ethyl}-4-methyl-thiazole-5-carboxylic acid cyclopropylmethyl-amide]
6.6 | – | Cc1nc(CCc2c(-c3ccc(F)cn3)noc2C)sc1C(=O)NCC(F)(F)F [Example 35, 2-{2-[3-(5-Fluoro-pyridin-2-yl)-5-methyl-isoxazol-4-yl]ethyl}-4-methyl-thiazole-5-carboxylic acid (2,2,2-trifluoro-ethyl)-amide]
14 | – | Cc1nc(CCc2c(-c3ccc(F)cn3)noc2C)sc1C(=O)NCCO [Example 36, 2-{2-[3-(5-Fluoro-pyridin-2-yl)-5-methyl-isoxazol-4-yl]-ethyl}-4-methyl-thiazole-5-carboxylic acid (2-hydroxy-ethyl)-amide]
55.9 | – | Cc1nc(CCc2c(-c3ccc(F)cn3)noc2C)sc1C(=O)N1CCSCC1 [Example 37, (2-{2-[3-(5-Fluoro-pyridin-2-yl)-5-methyl-isoxazol-4-yl]-ethyl}-4-methyl-thiazol-5-yl)-thiomorpholin-4-yl-methanone]
10.8 | – | CCNC(=O)c1sc(CCc2c(-c3ccc(F)cn3)noc2C)nc1C [Example 38, 2-{2-[3-(5-Fluoro-pyridin-2-yl)-5-methyl-isoxazol-4-yl]-ethyl}-4-methyl-thiazole-5-carboxylic acid ethylamide]
25.3 | – | CNC(=O)c1sc(CCc2c(-c3ccc(F)cn3)noc2C)nc1C [Example 39, 2-{2-[3-(5-Fluoro-pyridin-2-yl)-5-methyl-isoxazol-4-yl]-ethyl}-4-methyl-thiazole-5-carboxylic acid methylamide]
13.3 | – | Cc1onc(-c2ccc(F)cn2)c1CCc1ncc(C(=O)NC2CCOCC2)s1 [Example 40, 2-{2-[3-(5-Fluoro-pyridin-2-yl)-5-methyl-isoxazol-4-yl]-ethyl}-thiazole-5-carboxylic acid (tetrahydro-pyran-4-yl)-amide]
10.8 | – | Cc1onc(-c2ccc(F)cn2)c1CCc1ncc(C(=O)NC(C)C)s1 [Example 41, 2-{2-[3-(5-Fluoro-pyridin-2-yl)-5-methyl-isoxazol-4-yl]-ethyl}-thiazole-5-carboxylic acid isopropylamide]
– | 12.7 | Cc1onc(-c2ccc(F)cn2)c1CCc1ncc(C(=O)NC2CC2)s1 [Example 42, 2-{2-[3-(5-Fluoro-pyridin-2-yl)-5-methyl-isoxazol-4-yl]-ethyl}-thiazole-5-carboxylic acid cyclopropylamide]
18.6 | – | Cc1onc(-c2ccc(F)cn2)c1CCc1ncc(C(=O)NCC2CC2)s1 [Example 43, 2-{2-[3-(5-Fluoro-pyridin-2-yl)-5-methyl-isoxazol-4-yl]-ethyl}-thiazole-5-carboxylic acid cyclopropylmethyl-amide]
15.7 | – | Cc1onc(-c2ccc(F)cn2)c1CCc1ncc(C(=O)NCC(F)(F)F)s1 [Example 44, 2-{2-[3-(5-Fluoro-pyridin-2-yl)-5-methyl-isoxazol-4-yl]-ethyl}-thiazole-5-carboxylic acid (2,2,2-trifluoro-ethyl)-amide]
26.3 | – | Cc1onc(-c2ccc(F)cn2)c1CCc1ncc(C(=O)NCCO)s1 [Example 45, 2-{2-[3-(5-Fluoro-pyridin-2-yl)-5-methyl-isoxazol-4-yl]-ethyl}-thiazole-5-carboxylic acid (2-hydroxy-ethyl)-amide]
18.1 | – | CCNC(=O)c1cnc(CCc2c(-c3ccc(F)cn3)noc2C)s1 [Example 46, 2-{2-[3-(5-Fluoro-pyridin-2-yl)-5-methyl-isoxazol-4-yl]-ethyl}-thiazole-5-carboxylic acid ethylamide]
26.3 | – | CNC(=O)c1cnc(CCc2c(-c3ccc(F)cn3)noc2C)s1 [Example 47, 2-{2-[3-(5-Fluoro-pyridin-2-yl)-5-methyl-isoxazol-4-yl]-ethyl}-thiazole-5-carboxylic acid methylamide]
23.1 | – | CCCCc1noc(C)c1CCc1nc(C)c(C(=O)NC(C)C)s1 [Example 48, 2-[2-(3-Butyl-5-methyl-isoxazol-4-yl)-ethyl]-4-methyl-thiazole-5-carboxylic acid iso-propylamide]
43.3 | – | CCCCc1noc(C)c1CCc1nc(C)c(C(=O)NCC(C)(C)O)s1 [Example 49, 2-[2-(3-Butyl-5-methyl-isoxazol-4-yl)-ethyl]-4-methyl-thiazole-5-carboxylic acid (2-hydroxy-2-methyl-propyl)-amide]
16.8 | – | CCCCc1noc(C)c1CCc1nc(C)c(C(=O)NC(C)CO)s1 (centres unmarked) [Example 50, 2-[2-(3-Butyl-5-methyl-isoxazol-4-yl)-ethyl]-4-methyl-thiazole-5-carboxylic acid (2-hydroxy-1-methyl-ethyl)-amide]
11.1 | – | CCCCc1noc(C)c1CCc1nc(C)c(C(=O)NC2CCOCC2)s1 [Example 51, 2-[2-(3-Butyl-5-methyl-isoxazol-4-yl)-ethyl]-4-methyl-thiazole-5-carboxylic acid (tetra-hydro-pyran-4-yl)-amide]
18.7 | – | CCCCc1noc(C)c1CCc1nc(C)c(C(=O)NC(CO)CO)s1 [Example 53, 2-[2-(3-Butyl-5-methyl-isoxazol-4-yl)-ethyl]-4-methyl-thiazole-5-carboxylic acid (2-hydroxy-1-hydroxymethyl-ethyl)-amide]
15.9 | – | CCCCc1noc(C)c1CCc1nc(C)c(C(=O)N[C@@H](C)CO)s1 [Example 54, 2-[2-(3-Butyl-5-methyl-isoxazol-4-yl)-ethyl]-4-methyl-thiazole-5-carboxylic acid ((S)-2-hydroxy-1-methyl-ethyl)-amide]
